Tests used:
[1] = tested on: cytotoxic T lymphocytes specific for gag and HLA B8

**Q.** For `CC[C@H](C)[C@H](NC(=O)[C@H](CCC(=O)O)NC(=O)CNC(=O)[C@@H](NC(=O)[C@@H]1CCCN1C(=O)[C@@H](NC(=O)[C@@H]1CCCN1C(=O)[C@@H]1CCCN1C(=O)[C@@H](N)CC(N)=O)[C@@H](C)CC)C(C)C)C(=O)N[C@@H](Cc1ccc(O)cc1)C(=O)N[C@@H](CCCCN)C(=O)N[C@@H](CCCNC(=N)N)C(=O)N[C@@H](Cc1c[nH]c2ccccc12)C(=O)N[C@H](C(=O)N[C@H](C(=O)N[C@@H](CS)C(=O)O)[C@@H](C)CC)[C@@H](C)CC` [p24-13, NH2 -asparagine-proline-proline-isoleucine-proline-valine-glycine-glutamate-isoleucine-tyrosine-lysine-arginine-tryptophan-isoleucine-iso leucine-cysteine-COOH], which “stimulation of cytotoxic T lymphocytes to grow in vitro” value (cytotoxic T lymphocytes) is on record?
**A.** The value was “have been used to stimulate cytotoxic T lymphocytes to grow in vitro”.

**Q.** And the “recognition of peptide by cytotoxic T lymphocytes (lysis of target cells)” value [1]?
**A.** The value was “recognised by cytotoxic T lymphocytes specific for gag and HLA B8”.

**Q.** What about the “specific interaction with HLA class I molecule” value [1] of the same molecule?
**A.** Its value is “interacts specifically with HLA B8”.

From patent US5700635A, “HIV-1 gag cytotoxic T-lymphocyte epitope and method of use” (United Biomedical, Inc., priority 1989, dated 1997)
